Results: patent US20250171437A1 (Agios Pharmaceuticals,Inc., priority 2022, published 2025)

Biological target: T1, human PAH with the R408W mutation (A375 R408W cells) (Homo sapiens, UniProt P00439, R408W)
T1 construct: expressed in transfected cells
T1 sequence (P00439 1-452 R408W): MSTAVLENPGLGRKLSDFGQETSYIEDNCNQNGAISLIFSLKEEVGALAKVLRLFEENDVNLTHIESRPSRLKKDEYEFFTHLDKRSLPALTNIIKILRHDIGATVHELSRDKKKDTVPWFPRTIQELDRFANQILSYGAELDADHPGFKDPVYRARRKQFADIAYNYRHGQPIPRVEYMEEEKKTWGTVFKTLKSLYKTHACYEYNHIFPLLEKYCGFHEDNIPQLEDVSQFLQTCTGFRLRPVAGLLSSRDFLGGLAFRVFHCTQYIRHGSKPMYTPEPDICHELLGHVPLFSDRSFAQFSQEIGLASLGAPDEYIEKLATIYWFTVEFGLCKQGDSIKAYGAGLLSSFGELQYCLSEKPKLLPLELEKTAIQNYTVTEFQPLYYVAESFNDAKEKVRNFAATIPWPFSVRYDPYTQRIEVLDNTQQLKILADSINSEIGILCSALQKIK
Assay: Cell Based Phenylalanine Flux Assay
Conditions: A375 R408W cells; 24 hrs with compound, then 20 μM sepiapterin and 800 μM 13C9,15N-Phenylalanine for 4 hours; 13C-Tyrosine by LC-MS; average where tested multiple times
Procedure, shortened: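 A375 cells stably expressing lentiviral human PAH R408W were treated with compounds (10-point 2-fold dilutions, 0.5% DMSO, duplicate) for 24 h at 37 °C. Then 20 μM sepiapterin and 800 μM 13C9,15N-Phe were added for 4 h; media 13C-Tyr was measured by LC-MS to give AC50.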

AC50 [µM] | SMILES
1 to 5 | O=C(c1ccnn1C(F)F)N1CCc2[nH]cnc2[C@@H]1c1nc2c(F)cccc2o1 [Example 202, (R)-(1-(difluoromethyl)-1H-pyrazol-5-yl)(4-(4-fluorobenzo[d]oxazol-2-yl)-6,7-dihydro-1H-imidazo[4,5-c]pyridin-5(4H)-yl)methanone]
0.5 to 1 | CN(C)Cc1cn2ncc(C(=O)N3CCc4[nH]cnc4[C@H]3c3nc4cc(F)ccc4o3)c2cc1Cl [Example 203, (S)-(5-chloro-6-((dimethylamino)methyl)pyrazolo[1,5-a]pyridin-3-yl)(4-(5-fluorobenzo[d]oxazol-2-yl)-6,7-dihydro-1H-imidazo[4,5-c]pyridin-5(4H)-yl)methanonee]
1 to 5 | CN(C)Cc1cn2ncc(C(=O)N3CCc4[nH]cnc4[C@@H]3c3nc4cc(F)ccc4o3)c2cc1Cl [Example 204, (R)-(5-chloro-6-((dimethylamino)methyl)pyrazolo[1,5-a]pyridin-3-yl)(4-(5-fluorobenzo[d]oxazol-2-yl)-6,7-dihydro-1H-imidazo[4,5-c]pyridin-5(4H)-yl)methanonee]
≤ 0.5 | CN(C)c1cn2ncc(C(=O)N3CCc4[nH]cnc4[C@H]3c3nc4cc(F)ccc4o3)c2cc1Cl [Example 207, (S)-(5-chloro-6-(dimethylamino)pyrazolo[1,5-a]pyridin-3-yl)(4-(5-fluorobenzo[d]oxazol-2-yl)-6,7-dihydro-1H-imidazo[4,5-c]pyridin-5(4H)-yl)methanone]
0.5 to 1 | Cc1nc([C@@H](C)O)oc1C(=O)N1CCc2[nH]cnc2[C@H]1c1nc2c(F)cccc2o1 [Example 210, ((S)-4-(4-fluorobenzo[d]oxazol-2-yl)-6,7-dihydro-1H-imidazo[4,5-c]pyridin-5(4H)-yl)(2-((R)-1-hydroxyethyl)-4-methyloxazol-5-yl)methanone]
1 to 5 | CC(C)(O)c1nc(CF)c(C(=O)N2CCc3[nH]cnc3[C@@H]2c2nc3cc(F)ccc3o2)o1 [Example 212, (R)-(4-(5-fluorobenzo[d]oxazol-2-yl)-6,7-dihydro-1H-imidazo[4,5-c]pyridin-5(4H)-yl)(4-(fluoromethyl)-2-(2-hydroxypropan-2-yl)oxazol-5-yl)methanone]
1 to 5 | Cc1nc([C@@H](C)O)oc1C(=O)N1CCc2[nH]cnc2[C@@H]1c1nc2cccc(F)c2o1 [Example 218, ((R)-4-(7-fluorobenzo[d]oxazol-2-yl)-6,7-dihydro-1H-imidazo[4,5-c]pyridin-5(4H)-yl)(2-((R)-1-hydroxyethyl)-4-methyloxazol-5-yl)methanone]
≤ 0.5 | O=C(c1cnn2cc(F)c(Cl)cc12)N1CCc2[nH]cnc2[C@H]1c1nc2cc(F)ccc2o1 [Example 219, (S)-(5-chloro-6-fluoropyrazolo[1,5-a]pyridin-3-yl)(4-(5-fluorobenzo[d]oxazol-2-yl)-6,7-dihydro-1H-imidazo[4,5-c]pyridin-5(4H)-yl)methanone]
0.5 to 1 | CNC(C)(C)c1nc(C(F)F)c(C(=O)N2CCc3[nH]cnc3[C@H]2c2nc3cc(F)ccc3o2)o1 [Example 221, (S)-(4-(difluoromethyl)-2-(2-(methylamino)propan-2-yl)oxazol-5-yl)(4-(5-fluorobenzo[d]oxazol-2-yl)-6,7-dihydro-1H-imidazo[4,5-c]pyridin-5(4H)-yl)methanone]

Continued, compound first:

SMILES | AC50 [µM]
O=C(c1ccnn1C(F)F)N1CCc2[nH]cnc2[C@H]1c1nc2c(F)cccc2o1 [Example 201, (S)-(1-(difluoromethyl)-1H-pyrazol-5-yl)(4-(4-fluorobenzo[d]oxazol-2-yl)-6,7-dihydro-1H-imidazo[4,5-c]pyridin-5(4H)-yl)methanone] | 0.5 to 1
CNc1cn2ncc(C(=O)N3CCc4[nH]cnc4[C@H]3c3nc4cc(F)ccc4o3)c2cc1Cl [Example 205, (S)-(5-chloro-6-(methylamino)pyrazolo[1,5-a]pyridin-3-yl)(4-(5-fluorobenzo[d]oxazol-2-yl)-6,7-dihydro-1H-imidazo[4,5-c]pyridin-5(4H)-yl)methanone] | ≤ 0.5
CNc1cn2ncc(C(=O)N3CCc4[nH]cnc4[C@@H]3c3nc4cc(F)ccc4o3)c2cc1Cl [Example 206, (R)-(5-chloro-6-(methylamino)pyrazolo[1,5-a]pyridin-3-yl)(4-(5-fluorobenzo[d]oxazol-2-yl)-6,7-dihydro-1H-imidazo[4,5-c]pyridin-5(4H)-yl)methanone] | 1 to 5
CN(C)c1cn2ncc(C(=O)N3CCc4[nH]cnc4[C@@H]3c3nc4cc(F)ccc4o3)c2cc1Cl [Example 208, (R)-(5-chloro-6-(dimethylamino)pyrazolo[1,5-a]pyridin-3-yl)(4-(5-fluorobenzo[d]oxazol-2-yl)-6,7-dihydro-1H-imidazo[4,5-c]pyridin-5(4H)-yl)methanone] | 1 to 5
Cc1nc([C@@H](C)O)oc1C(=O)N1CCc2[nH]cnc2[C@@H]1c1nc2c(F)cccc2o1 [Example 209, ((R)-4-(4-fluorobenzo[d]oxazol-2-yl)-6,7-dihydro-1H-imidazo[4,5-c]pyridin-5(4H)-yl)(2-((R)-1-hydroxyethyl)-4-methyloxazol-5-yl)methanone] | ≥ 5
CC(C)(O)c1nc(CF)c(C(=O)N2CCc3[nH]cnc3[C@H]2c2nc3cc(F)ccc3o2)o1 [Example 211, (S)-(4-(5-fluorobenzo[d]oxazol-2-yl)-6,7-dihydro-1H-imidazo[4,5-c]pyridin-5(4H)-yl)(4-(fluoromethyl)-2-(2-hydroxypropan-2-yl)oxazol-5-yl)methanone] | 0.5 to 1
O=C(c1oc(C2(O)CC2)nc1C(F)F)N1CCc2[nH]cnc2[C@@H]1c1nc2cccc(F)c2o1 [Example 213, (R)-(4-(difluoromethyl)-2-(1-hydroxycyclopropyl)oxazol-5-yl)(4-(7-fluorobenzo[d]oxazol-2-yl)-6,7-dihydro-1H-imidazo[4,5-c]pyridin-5(4H)-yl)methanone] | 0.5 to 1
O=C(c1oc(C2(O)CC2)nc1C(F)F)N1CCc2[nH]cnc2[C@H]1c1nc2cccc(F)c2o1 [Example 214, (S)-(4-(difluoromethyl)-2-(1-hydroxycyclopropyl)oxazol-5-yl)(4-(7-fluorobenzo[d]oxazol-2-yl)-6,7-dihydro-1H-imidazo[4,5-c]pyridin-5(4H)-yl)methanone] | ≤ 0.5
O=C(c1oc(C2(O)CC2)nc1C(F)F)N1CCc2[nH]cnc2[C@H]1c1nc2c(F)cccc2o1 [Example 215, (S)-(4-(difluoromethyl)-2-(1-hydroxycyclopropyl)oxazol-5-yl)(4-(4-fluorobenzo[d]oxazol-2-yl)-6,7-dihydro-1H-imidazo[4,5-c]pyridin-5(4H)-yl)methanone] | 0.5 to 1
O=C(c1oc(C2(O)CC2)nc1C(F)F)N1CCc2[nH]cnc2[C@@H]1c1nc2c(F)cccc2o1 [Example 216, (R)-(4-(difluoromethyl)-2-(1-hydroxycyclopropyl)oxazol-5-yl)(4-(4-fluorobenzo[d]oxazol-2-yl)-6,7-dihydro-1H-imidazo[4,5-c]pyridin-5(4H)-yl)methanone] | 1 to 5
Cc1nc([C@@H](C)O)oc1C(=O)N1CCc2[nH]cnc2[C@H]1c1nc2cccc(F)c2o1 [Example 217, ((S)-4-(7-fluorobenzo[d]oxazol-2-yl)-6,7-dihydro-1H-imidazo[4,5-c]pyridin-5(4H)-yl)(2-((R)-1-hydroxyethyl)-4-methyloxazol-5-yl)methanone] | ≤ 0.5
O=C(c1cnn2cc(F)c(Cl)cc12)N1CCc2[nH]cnc2[C@@H]1c1nc2cc(F)ccc2o1 [Example 220, (R)-(5-chloro-6-fluoropyrazolo[1,5-a]pyridin-3-yl)(4-(5-fluorobenzo[d]oxazol-2-yl)-6,7-dihydro-1H-imidazo[4,5-c]pyridin-5(4H)-yl)methanone] | ≥ 5
CNC(C)(C)c1nc(C(F)F)c(C(=O)N2CCc3[nH]cnc3[C@@H]2c2nc3cc(F)ccc3o2)o1 [Example 222, (R)-(4-(difluoromethyl)-2-(2-(methylamino)propan-2-yl)oxazol-5-yl)(4-(5-fluorobenzo[d]oxazol-2-yl)-6,7-dihydro-1H-imidazo[4,5-c]pyridin-5(4H)-yl)methanone] | 1 to 5
C[C@H](O)c1nc(C(F)F)c(C(=O)N2CCc3[nH]cnc3[C@H]2c2nc3c(F)cccc3o2)o1 [Example 227, (4-(difluoromethyl)-2-((S)-1-hydroxyethyl)oxazol-5-yl)((S)-4-(4-fluorobenzo[d]oxazol-2-yl)-6,7-dihydro-1H-imidazo[4,5-c]pyridin-5(4H)-yl)methanone] | ≤ 0.5
C[C@H](O)c1nc(C(F)F)c(C(=O)N2CCc3[nH]cnc3[C@@H]2c2nc3c(F)cccc3o2)o1 [Example 228, (4-(difluoromethyl)-2-((S)-1-hydroxyethyl)oxazol-5-yl)((R)-4-(4-fluorobenzo[d]oxazol-2-yl)-6,7-dihydro-1H-imidazo[4,5-c]pyridin-5(4H)-yl)methanone] | 1 to 5
C[C@@H](O)c1nc(C(F)F)c(C(=O)N2CCc3[nH]cnc3[C@H]2c2nc3c(F)cccc3o2)o1 [Example 229, (4-(difluoromethyl)-2-((R)-1-hydroxyethyl)oxazol-5-yl)((S)-4-(4-fluorobenzo[d]oxazol-2-yl)-6,7-dihydro-1H-imidazo[4,5-c]pyridin-5(4H)-yl)methanone] | ≤ 0.5
